Experimental data: US5441941A, “1,2-dihydroellipticines with activity against CNS specific cancer” (The United States of America as represented by the …, priority 1993, dated 1995)

Key:
[1] = test system: DMS 273; assay: NCI in vitro screen, SRB percent growth, Small Cell Lung Cancer
[2] = test system: A498; assay: NCI in vitro screen, SRB percent growth, Renal Cancer
[3] = test system: NCI-H522; assay: NCI in vitro screen, SRB percent growth, Non-Small Cell Lung Cancer
[4] = test system: HOP-92; assay: cells; details: Homo sapiens
[5] = test system: HOP-18; assay: NCI in vitro screen, SRB percent growth, Non-Small Cell Lung Cancer
[6] = test system: RXF-393; assay: NCI in vitro screen, SRB percent growth, Renal Cancer
[7] = test system: SN12C; assay: as above
[8] = test system: OVCAR-4; assay: NCI in vitro screen, SRB percent growth, Ovarian Cancer
[9] = test system: NCI-H322M; assay: NCI in vitro screen, SRB percent growth, Non-Small Cell Lung Cancer
[10] = test system: SR; assay: NCI in vitro screen, SRB percent growth, Leukemia
[11] = test system: NCI-H226; assay: cells; details: Homo sapiens
[12] = Log10 Concentration -4.0, 100 µM
[13] = Log10 Concentration -7.0, 0.1 µM
[14] = HOP-92, read-out: Percent Growth
[15] = NCI-H226, read-out: Percent Growth

COc1ccc2[nH]c3c(C)c4c(c(C)c3c2c1)CN(C)C=C4 [Formula VII]
TGI ([1]; PG=0): 13.4 µM | GI50 ([1]; PG=+50): 0.827 µM | Percent Growth [2, 12]: -3% | Percent Growth ([2]; Log10 Concentration -5.0): 54% | Percent Growth ([2]; Log10 Concentration -6.0, 1 µM): 93% | Percent Growth [2, 13]: 114% | Percent Growth ([2]; Log10 Concentration -8.0): 105% | TGI ([2]; PG=0): 90.2 µM | GI50 ([2]; PG=+50): 11.6 µM | CC50 ([2]; read-out: LC-50, PG=-50): > 100 µM | Percent Growth [3, 12]: -46% | Percent Growth ([3]; Log10 Concentration -5.0): -30% | Percent Growth ([3]; Log10 Concentration -6.0, 1 µM): 40% | Percent Growth [3, 13]: 91% | Percent Growth ([3]; Log10 Concentration -8.0): 97% | TGI ([3]; PG=0): 3.71 µM | GI50 ([3]; PG=+50): 0.626 µM | CC50 ([3]; read-out: LC-50, PG=-50): > 100 µM | GI50 ([4]; HOP-92): 5.97 µM | CC50 ([4]; HOP-92, read-out: LC-50): 86.8 µM | activity at 0.01 µM [4, 14]: 121% | activity at 0.1 µM [4, 14]: 100% | activity at 1 µM [4, 14]: 95% | activity at 10 µM [4, 14]: 37% | activity at 100 µM [4, 14]: -56% | IC (TGI) ([4]; HOP-92, read-out: TGI): 25.1 µM | Percent Growth [5, 12]: -6% | Percent Growth ([5]; Log10 Concentration -5.0): 71% | Percent Growth ([5]; Log10 Concentration -6.0, 1 µM): 121% | Percent Growth [5, 13]: 142% | Percent Growth ([5]; Log10 Concentration -8.0): 174% | TGI ([5]; PG=0): 82.8 µM | GI50 ([5]; PG=+50): 18.8 µM | CC50 ([5]; read-out: LC-50, PG=-50): > 100 µM

Cc1ccc2[nH]c3c(C)c4c(c(C)c3c2c1)CN(C)C=C4 [Formula XI]
Percent Growth [6, 12]: -92% | Percent Growth ([6]; Log10 Concentration -5.0): 9% | Percent Growth ([6]; Log10 Concentration -6.0, 1 µM): 51% | Percent Growth [6, 13]: 96% | Percent Growth ([6]; Log10 Concentration -8.0): 99% | TGI ([6]; PG=0): 12.3 µM | GI50 ([6]; PG=+50): 1.04 µM | CC50 ([6]; read-out: LC-50, PG=-50): 38.5 µM | Percent Growth [7, 12]: -92% | Percent Growth ([7]; Log10 Concentration -5.0): -69% | Percent Growth ([7]; Log10 Concentration -6.0, 1 µM): -36% | Percent Growth [7, 13]: 66% | Percent Growth ([7]; Log10 Concentration -8.0): 92% | TGI ([7]; PG=0): 0.442 µM | GI50 ([7]; PG=+50): 0.143 µM | CC50 ([7]; read-out: LC-50, PG=-50): 2.65 µM | Percent Growth [8, 12]: -85% | Percent Growth ([8]; Log10 Concentration -5.0): -6% | Percent Growth ([8]; Log10 Concentration -6.0, 1 µM): 68% | Percent Growth [8, 13]: 96% | Percent Growth ([8]; Log10 Concentration -8.0): 113% | TGI ([8]; PG=0): 8.34 µM | GI50 ([8]; PG=+50): 1.74 µM | CC50 ([8]; read-out: LC-50, PG=-50): 36.3 µM | Percent Growth [9, 12]: -100% | Percent Growth ([9]; Log10 Concentration -5.0): 10% | Percent Growth ([9]; Log10 Concentration -6.0, 1 µM): 99% | Percent Growth [9, 13]: 139% | Percent Growth ([9]; Log10 Concentration -8.0): 133% | TGI ([9]; PG=0): 12.3 µM | GI50 ([9]; PG=+50): 3.55 µM | CC50 ([9]; read-out: LC-50, PG=-50): 35.1 µM | Percent Growth [10, 12]: -42% | Percent Growth ([10]; Log10 Concentration -5.0): 6% | Percent Growth ([10]; Log10 Concentration -6.0, 1 µM): 47% | Percent Growth [10, 13]: 86% | Percent Growth ([10]; Log10 Concentration -8.0): 101% | TGI ([10]; PG=0): 13.5 µM | GI50 ([10]; PG=+50): 0.846 µM | CC50 ([10]; read-out: LC-50, PG=-50): > 100 µM | GI50 ([11]; NCI-H226): 0.329 µM | CC50 ([11]; NCI-H226, read-out: LC-50): 17.4 µM | activity at 0.01 µM [11, 15]: 99% | activity at 0.1 µM [11, 15]: 83% | activity at 1 µM [11, 15]: 19% | activity at 10 µM [11, 15]: -43% | activity at 100 µM [11, 15]: -71% | IC (TGI) ([11]; NCI-H226, read-out: TGI): 2.02 µM
